Tests used:
[1] = target: T1, Prostaglandin E2 receptor EP3 subtype (Homo sapiens, UniProt P43115); experiment: Displacement of [3H]PGE2 from human recombinant EP3 receptor expressed in HEK293 cell membranes after 120 mins by liquid scintillation counting method
T1 sequence (P43115 whole entry): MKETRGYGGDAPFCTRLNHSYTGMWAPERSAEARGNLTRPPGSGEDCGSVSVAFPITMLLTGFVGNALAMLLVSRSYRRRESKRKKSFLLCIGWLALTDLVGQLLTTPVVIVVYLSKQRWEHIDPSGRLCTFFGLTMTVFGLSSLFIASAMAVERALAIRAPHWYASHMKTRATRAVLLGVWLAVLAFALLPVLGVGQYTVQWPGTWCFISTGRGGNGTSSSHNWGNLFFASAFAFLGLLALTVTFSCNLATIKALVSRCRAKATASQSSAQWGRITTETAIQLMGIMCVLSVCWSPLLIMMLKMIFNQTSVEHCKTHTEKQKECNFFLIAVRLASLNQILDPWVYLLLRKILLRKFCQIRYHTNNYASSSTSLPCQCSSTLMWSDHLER

[2] = target: T2, Prostaglandin E2 receptor EP4 subtype (Homo sapiens, UniProt P35408); experiment: Displacement of [3H]PGE2 from human recombinant EP4 receptor expressed in HEK293 cell membranes after 120 mins by liquid scintillation counting method
[3] = target: T3, Prostaglandin E2 receptor EP2 subtype (Homo sapiens, UniProt P43116); experiment: Agonist activity at human EP2 receptor expressed in HEK293T/17 cells assessed as increase in GalphaS-mediated CREB activation at 10 uM measured after 6 to 24 hrs by SEAP reporter gene-based chemiluminescence assay relative to control; assay type: functional, cell-based
[4] = target: T2, Prostaglandin E2 receptor EP4 subtype; experiment: Agonist activity at human EP4 receptor expressed in HEK293T/17 cells assessed as increase in GalphaS-mediated CREB activation measured after 6 to 24 hrs by SEAP reporter gene-based chemiluminescence assay; assay type: functional, cell-based
[5] = target: T3, Prostaglandin E2 receptor EP2 subtype; experiment: Displacement of [3H]PGE2 from human recombinant EP2 receptor expressed in HEK293 cell membranes after 120 mins by liquid scintillation counting method
[6] = target: T3, Prostaglandin E2 receptor EP2 subtype; experiment: Agonist activity at human EP2 receptor expressed in HEK293T/17 cells assessed as increase in intracellular cAMP level incubated for 30 mins by ELISA; assay type: functional, cell-based
[7] = target: T3, Prostaglandin E2 receptor EP2 subtype; experiment: Agonist activity at human EP2 receptor expressed in HEK293T/17 cells assessed as increase in GalphaS-mediated CREB activation measured after 6 to 24 hrs by SEAP reporter gene-based chemiluminescence assay; assay type: functional, cell-based
[8] = target: T3, Prostaglandin E2 receptor EP2 subtype; experiment: Agonist activity at human EP2 receptor expressed in HEK293T/17 cells assessed as increase in intracellular cAMP level at 10 uM incubated for 30 mins by ELISA relative to control; assay type: functional, cell-based
[9] = target: T2, Prostaglandin E2 receptor EP4 subtype; experiment: Agonist activity at human EP4 receptor expressed in HEK293T/17 cells assessed as increase in intracellular cAMP level incubated for 30 mins by ELISA; assay type: functional, cell-based

T2 sequence (P35408 whole entry): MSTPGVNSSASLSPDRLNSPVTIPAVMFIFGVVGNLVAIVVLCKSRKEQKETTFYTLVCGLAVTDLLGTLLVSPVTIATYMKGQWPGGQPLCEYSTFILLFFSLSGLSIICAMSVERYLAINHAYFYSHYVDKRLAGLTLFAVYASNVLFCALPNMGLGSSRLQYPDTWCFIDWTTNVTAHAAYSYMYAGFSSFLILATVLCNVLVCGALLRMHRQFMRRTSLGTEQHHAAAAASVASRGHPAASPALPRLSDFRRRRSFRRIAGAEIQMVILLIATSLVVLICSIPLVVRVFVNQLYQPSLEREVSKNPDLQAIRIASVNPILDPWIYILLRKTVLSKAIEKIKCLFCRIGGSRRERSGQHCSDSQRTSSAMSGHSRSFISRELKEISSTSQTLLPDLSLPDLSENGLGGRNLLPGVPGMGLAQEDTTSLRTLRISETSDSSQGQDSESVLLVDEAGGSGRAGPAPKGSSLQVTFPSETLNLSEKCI
T3 sequence (P43116 whole entry): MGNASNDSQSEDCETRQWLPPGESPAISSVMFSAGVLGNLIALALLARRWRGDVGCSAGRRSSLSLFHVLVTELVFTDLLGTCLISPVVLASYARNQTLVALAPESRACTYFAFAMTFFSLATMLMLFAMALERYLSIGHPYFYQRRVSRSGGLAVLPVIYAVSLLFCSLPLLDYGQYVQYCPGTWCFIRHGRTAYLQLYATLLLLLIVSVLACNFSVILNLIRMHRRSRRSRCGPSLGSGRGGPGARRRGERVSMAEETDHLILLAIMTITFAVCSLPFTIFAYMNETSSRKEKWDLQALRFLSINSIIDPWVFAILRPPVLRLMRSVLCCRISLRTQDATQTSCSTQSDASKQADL

CCCCC[C@H](O)/C=C/[C@H]1CCC(=O)N1CCCCCCC(=O)O
Ki [1]: 1170 nM
Ki [2]: 1.61 nM
Activity [3]: < 50%
EC50 [4]: 0.065 nM
Ki [5]: 1460 nM
EC50 [6]: > 10000 nM
EC50 [7]: > 10000 nM
Activity [8]: < 50%

CCCCC[C@H](O)/C=C/[C@H]1CC(F)(F)C(=O)N1CCCCCCC(=O)O
EC50 [9]: 0.348 nM
Ki [1]: 350 nM
Ki [2]: 0.2 nM
EC50 [4]: 0.021 nM
Ki [5]: 329 nM
EC50 [6]: > 10000 nM
EC50 [7]: 2270 nM
Activity [8]: < 50%

COCc1cccc(C[C@H](O)/C=C/[C@H]2[C@H](O)CC(=O)[C@@H]2CCSCCCC(=O)O)c1
Ki [2]: 0.396 nM
EC50 [4]: 0.01 nM
EC50 [6]: 10000 nM
EC50 [7]: 610 nM
Activity [8]: < 50%

Reference: ChEMBL document CHEMBL4385611, “Difluoromethylene at the γ-Lactam α-Position Improves 11-Deoxy-8-aza-PGE1 Series EP4 Receptor Binding and Activity: 11-Deoxy-10,10-difluoro-8-aza-PGE1 Analog (KMN-159) as a Potent EP4 Agonist” (J Med Chem, 2019)
